Broadly, the Emax is the greatest response seen or fitted, relative to the assay's reference.

Our source for the Activity and Emax values is ChEMBL document CHEMBL1142106, “Resin glycosides from the roots of Ipomoea tyrianthina and their biological activity” (2007).

For assay [1], the system named is Mus musculus. Put plainly: Anticonvulsant effect in ICR mouse assessed as mortality protection against pentylenetetrazole-induced seizures at 1.0 mg/kg, ip relative to control. The class given is functional, organism-based. Further details: dose 1 mg/kg.
Assay [2] deals with Mus musculus. Put plainly: Anxiolytic activity of ICR mouse assessed as increase in time spent in open arms at 1.0 mg/kg, ip by EPM test relative to control. The format is functional, organism-based. Further details: dose 1 mg/kg.
Assay [3] concerns Ileum. Put plainly: Relaxation of spontaneous contractions of isolated rat ileum relative to control. The format is functional, tissue-based.
Assay [4] relates to Mus musculus. Put plainly: Anxiolytic activity of ICR mouse at 10 mg/kg, ip by EPM test relative to control. The format is functional, organism-based. Further details: dose 10 mg/kg.
For assay [5], the system named is Mus musculus. The assay is described as follows: Anticonvulsant effect in ICR mouse assessed as mortality protection against pentylenetetrazole-induced seizures at 40 mg/kg, ip relative to control. The class given is functional. The conditions noted are these: route intraperitoneal.
Assay [6] relates to Ileum. The assay is described as follows: Relaxation of spontaneous contractions of isolated rat ileum at 250 ug/mL relative to control. The format is functional.
Assay [7] relates to Mus musculus. The assay is described as follows: Anticonvulsant effect in ICR mouse assessed as mortality protection against pentylenetetrazole-induced seizures at 10 mg/kg, ip relative to control. The class given is functional. As to conditions: route intraperitoneal.
Assay [8] concerns Mus musculus. The assay is described as follows: Antidepressant activity in ICR mouse assessed as diminution of immobility time at 10 mg/kg, ip by forced swimming test relative to control. The class given is functional, organism-based. Further details: dose 10 mg/kg.

The source made the active and inactive calls. The rule behind the calls is not given here.

Take `CN1C(=O)CN=C(c2ccccc2)c2cc(Cl)ccc21`: the result in the assay on Mus musculus [1] and in the assay on Mus musculus [2] was Active.
For the molecule `C/C=C(\C)C(=O)O[C@H]1[C@H](O)[C@@H](O)[C@H](O[C@@H]2[C@H]3OC(=O)CCCCCCCCCC(CCCCC)O[C@@H]4O[C@H](C)[C@@H](O)[C@H](O)[C@H]4O[C@@H]4O[C@H](CO)[C@@H](O)[C@H](O)[C@H]4O[C@H](O[C@H]2C)[C@@H]3OC(=O)C(C)CC)O[C@@H]1C` (some centres undefined) [SCAMMONIN 1], the outcome with Ileum [3] was Active. The outcome with Mus musculus [4] was inactive. In addition, the Activity in the assay with Mus musculus [5] was determined as 100%. Besides, in the assay on Ileum [6], the Emax at 250 µg/mL came out at 55.1%.
On to `CCCCCC1CCCCCCCCCC(=O)O[C@@H]2[C@@H](O[C@@H]3O[C@H](C)[C@@H](O)[C@H](O)[C@H]3O)[C@H](C)O[C@@H](O[C@H]3[C@H](O[C@H]4[C@H](O1)O[C@H](C)[C@@H](O)[C@@H]4O)O[C@H](CO)[C@@H](O)[C@@H]3O)[C@@H]2OC(=O)C(C)CC` (some centres undefined) [SCAMMONIN 2], for which the outcome in the assay with Mus musculus [4] was inactive. In the assay on Mus musculus [5], the Activity turned out to be 66%.
As to `CCCCCC1CCCCCCCCCC(=O)O[C@@H]2[C@@H](O[C@@H]3O[C@H](C)[C@@H](OC(=O)C(C)CC)[C@H](O)[C@H]3O)[C@H](C)O[C@@H](O[C@H]3[C@H](O[C@H]4[C@H](O1)O[C@H](C)[C@@H](O)[C@@H]4O)O[C@H](CO)[C@@H](O)[C@@H]3O)[C@@H]2OC(=O)CCC` (some centres undefined) [TYRIANTHIN 6], the outcome with Ileum [3] and in the assay with Mus musculus [8] was Active. Moreover, the Activity with Mus musculus [7] was found to be 33.33%; with Mus musculus [5], 88%. For the same molecule, the result in the assay on Mus musculus [4] was inactive. Further, in the assay on Ileum [6], the Emax at 250 µg/mL was found to be 59.1%.
